Measured values: US20250034185A1 (priority 2021, published 2025)

System: plasma enzymes
Settings: Sprague Dawley, rat
For P5P formed in this document: test concentration or dose not given here.

SMILES | P5P formed | relative P5P formed
Cc1ncc(COP(=O)(N[C@@H](C)C(=O)OC(C)C)Oc2ccc(Br)cc2F)c(CN)c1O (stereo partly drawn) [Compound 14xviii, (2S)-Isopropyl 2-(((4-(aminomethyl)-5-hydroxy-6-methylpyridin-3-yl)methoxy)(4-bromo-2-fluorophenoxy)phosphorylamino)propanoate] | 2.4 µM | 96.0%
[2H]c1c([2H])c([2H])c(OP(=O)(N[C@@H](C)C(=O)OC(C)C)OCc2cnc(C)c(O)c2C=O)c([2H])c1[2H] (some centres unmarked) [Compound 16xx] | 1.4 µM | 38.9%
Cc1ncc(COP(=O)(N[C@@H](C)C(=O)OC(C)C)Oc2ccc(Cl)c(Cl)c2)c(CO)c1O (stereo partly drawn) [Compound 15iii, (2S)-Isopropyl 2-((3,4-dichlorophenoxy)((5-hydroxy-4-(hydroxymethyl)-6-methylpyridin-3-yl)methoxy)phosphorylamino)propanoate] | 0.4 µM | 7.4%
Cc1ncc(COP(=O)(NCC(=O)OC(C)C)Oc2ccccc2)c(CN)c1O (centres unmarked) [Compound 14ii, Isopropyl 2-(((4-(aminomethyl)-5-hydroxy-6-methylpyridin-3-yl)methoxy)(phenoxy)phosphorylamino)acetate] | 0 µM | 0.0%
Cc1ccc(OP(=O)(N[C@@H](C)C(=O)OC(C)C)OCc2cnc(C)c(O)c2CN)cc1 (stereo partly drawn) [Compound 14xvi, (2S)-Isopropyl 2-(((4-(aminomethyl)-5-hydroxy-6-methylpyridin-3-yl)methoxy)(p-tolyloxy)phosphorylamino)propanoate] | 0.3 µM | 10.3%
Cc1ncc(COP(=O)(N[C@@H](C)C(=O)OC(C)C)Oc2ccccc2)c(CO)c1OC(=O)c1ccccc1 (stereo partly drawn) [Compound 15xvii, (2S)-Isopropyl 2-(((5-benzoyloxy-4-(hydroxymethyl)-6-methylpyridin-3-yl)methoxy)(phenoxy)phosphorylamino)propanoate] | 0.3 µM | 8.3%
Cc1ncc(COP(=O)(N[C@@H](C)C(=O)OCC2CCCC2)Oc2ccccc2)c(C=O)c1O (stereo partly drawn) [Compound 16x, (2S)-Cyclopentylmethyl 2-(((4-formyl-5-hydroxy-6-methylpyridin-3-yl)methoxy)(phenoxy)phosphorylamino)propanoate] | 1.95 µM | 121.9%
Cc1ncc(COP(=O)(N[C@@H](C)C(=O)Oc2ccc3ccccc3c2)Oc2ccccc2)c(CO)c1O (stereo partly drawn) [Compound 15iv, (2S)-Naphthalen-2-yl 2-(((5-hydroxy-4-(hydroxymethyl)-6-methylpyridin-3-yl)methoxy)(phenoxy)phosphorylamino)propanoate] | 0.65 µM | 6.2%
COC(=O)[C@@H]1CCCN1P(=O)(OCc1cnc(C)c(O)c1C=O)Oc1ccccc1 (stereo partly drawn) [Compound 16xxxiii, (2S)-Methyl 1-(((4-formyl-5-hydroxy-6-methylpyridin-3-yl)methoxy)(phenoxy)phosphoryl)pyrrolidine-2-carboxylate] | 0.4 µM | 11.8%
Cc1ncc(CO[P@@](=O)(N[C@@H](C)C(=O)OC(C)C)Oc2ccccc2)c(CO)c1O [Compound 15i, (S)-Isopropyl 2-((S)-((5-hydroxy-4-(hydroxymethyl)-6-methylpyridin-3-yl)methoxy)(phenoxy)phosphorylamino)propanoate] | 0.15 µM | 2.6%
[2H]C([2H])([2H])C([2H])(OC(=O)[C@H](C)NP(=O)(OCc1cnc(C)c(O)c1C=O)Oc1ccccc1)C([2H])([2H])[2H] (some centres unmarked) [Compound 16xxi] | 0.3 µM | 17.6%
Cc1ncc(COP(=O)(N[C@H](C(=O)OC(C)C)C2CCCC2)Oc2ccccc2)c(CO)c1O (stereo partly drawn) [Compound 15xii, (2S)-Isopropyl 2-cyclopentyl-2-(((5-hydroxy-4-(hydroxymethyl)-6-methylpyridin-3-yl)methoxy)(phenoxy)phosphorylamino)acetate] | 0.2 µM | 7.4%
Cc1ncc(COP(=O)(NC(CC(F)(F)F)C(=O)OC(C)C)Oc2ccccc2)c(C=O)c1O (centres unmarked) [Compound 16xi, Isopropyl 4,4,4-trifluoro-2-(((4-formyl-5-hydroxy-6-methylpyridin-3-yl)methoxy)(phenoxy)phosphorylamino)butanoate] | 0.6 µM | 15.8%
Cc1ncc(COP(=O)(N[C@@H](C)C(=O)OCc2ccccc2)Oc2ccccc2)c(CO)c1O (stereo partly drawn) [Compound 15xi, (2S)-Benzyl 2-(((5-hydroxy-4-(hydroxymethyl)-6-methylpyridin-3-yl)methoxy)(phenoxy)phosphorylamino)propanoate] | 1.1 µM | 10.5%
[2H]c1c([2H])c([2H])c(OP(=O)(N[C@@H](C)C(=O)OC(C)C)OCc2cnc(C)c(O)c2CO)c([2H])c1[2H] (some centres unmarked) [Compound 15xix] | 0.4 µM | 7.4%
Cc1ncc(COP(=O)(N[C@@H](C)C(=O)OC2CCN(C)CC2)Oc2ccccc2)c(C=O)c1O (stereo partly drawn) [Compound 16xxxi, (2S)-1-Methylpiperidin-4-yl 2-(((4-formyl-5-hydroxy-6-methylpyridin-3-yl)methoxy)(phenoxy)phosphorylamino)propanoate] | 0.4 µM | 13.8%

SMILES | P5P formed | relative P5P formed
Cc1ncc(COP(=O)(N[C@@H](C)C(=O)Oc2ccc(Cl)cc2)Oc2ccccc2)c(C=O)c1O (stereo partly drawn) [Compound 16xL, (2S)-4-Chlorophenyl 2-(((4-formyl-5-hydroxy-6-methylpyridin-3-yl)methoxy)(phenoxy)phosphorylamino)propanoate] | 3.6 µM | 171.4%
Cc1ncc(COP(=O)(N[C@H](C(=O)OC(C)C)C2CCCC2)Oc2ccccc2)c(C=O)c1O (stereo partly drawn) [Compound 16xxviii, (2S)-Isopropyl 2-cyclopentyl-2-(((4-formyl-5-hydroxy-6-methylpyridin-3-yl)methoxy)(phenoxy)phosphorylamino)acetate] | 0.4 µM | 9.8%
Cc1ncc(COP(=O)(N[C@@H](C)C(=O)OC(C)C)Oc2ccc(OC(F)(F)F)cc2)c(CN)c1O (stereo partly drawn) [Compound 14xi, (2S)-Isopropyl 2-(((4-(aminomethyl)-5-hydroxy-6-methylpyridin-3-yl)methoxy)(4-(trifluoromethoxy)phenoxy)phosphorylamino)propanoate] | 0.3 µM | 17.6%
Cc1ncc(COP(=O)(N[C@@H](C)C(=O)Oc2ccc3c(c2)CCCC3)Oc2ccccc2)c(C=O)c1O (stereo partly drawn) [Compound 16xxxiv, (2S)-5,6,7,8-Tetrahydronaphthalen-2-yl 2-(((4-formyl-5-hydroxy-6-methylpyridin-3-yl)methoxy)(phenoxy)phosphorylamino)propanoate] | 4.9 µM | 144.1%
[2H]C([2H])([2H])c1ncc(C([2H])([2H])OP(=O)(N[C@@H](C)C(=O)OC(C)C)Oc2ccccc2)c(CO)c1O (some centres unmarked) [Compound 15xxxi] | 0.5 µM | 20.0%
Cc1ncc(COP(=O)(N[C@@H](C)C(=O)Oc2ccc(Cl)cc2)Oc2ccccc2)c(CN)c1O (stereo partly drawn) [Compound 14xvii, (2S)-4-Chlorophenyl 2-(((4-(aminomethyl)-5-hydroxy-6-methylpyridin-3-yl)methoxy)(phenoxy)phosphorylamino)propanoate] | 6.6 µM | 194.1%
[2H]C([2H])([2H])C(OC(=O)[C@H](C)NP(=O)(OCc1cnc(C)c(O)c1C=O)Oc1ccccc1)C([2H])([2H])[2H] (some centres unmarked) [Compound 16xxii] | 6.3 µM | 153.7%
Cc1ccc(OC(=O)[C@H](C)NP(=O)(OCc2cnc(C)c(O)c2CN)Oc2ccccc2)cc1 (stereo partly drawn) [Compound 14vii, (2S)-p-Tolyl 2-(((4-(aminomethyl)-5-hydroxy-6-methylpyridin-3-yl)methoxy)(phenoxy)phosphorylamino)propanoate] | 0.5 µM | 12.2%
COC(=O)[C@H](C)NP(=O)(OCc1cnc(C)c(O)c1CO)Oc1ccccc1 (stereo partly drawn) [Compound 15vi, (2S)-Methyl 2-(((5-hydroxy-4-(hydroxymethyl)-6-methylpyridin-3-yl)methoxy)(phenoxy)phosphorylamino)propanoate] | 0 µM | 0.0%
[2H]C([2H])(NP(=O)(OCc1cnc(C)c(O)c1CN)Oc1ccccc1)C(=O)OC(C([2H])([2H])[2H])C([2H])([2H])[2H] (centres unmarked) [Compound 14xiii] | 0.3 µM | 17.6%
Cc1ncc(COP(=O)(N[C@@H](CC(C)C)C(=O)OC(C)C)Oc2ccccc2)c(CO)c1O (stereo partly drawn) [Compound 15xiii, (2S)-Isopropyl 2-(((5-hydroxy-4-(hydroxymethyl)-6-methylpyridin-3-yl)methoxy)(phenoxy)phosphorylamino)-4-methylpentanoate] | 0.8 µM | 15.7%
Cc1ncc(COP(=O)(N[C@@H](C)C(=O)OC2CCN(C)CC2)Oc2ccccc2)c(CN)c1O (stereo partly drawn) [Compound 14xv, (2S)-1-Methylpiperidin-4-yl 2-(((4-(aminomethyl)-5-hydroxy-6-methylpyridin-3-yl)methoxy)(phenoxy)phosphorylamino)propanoate] | 0.3 µM | 10.3%
CCC(CC)COC(=O)[C@H](C)NP(=O)(OCc1cnc(C)c(O)c1CN)Oc1ccccc1 (stereo partly drawn) [Compound 14i, (2S)-2-Ethylbutyl 2-(((4-(aminomethyl)-5-hydroxy-6-methylpyridin-3-yl)methoxy)(phenoxy)phosphorylamino)propanoate] | 0.17 µM | 4.0%
Cc1ncc(COP(=O)(N[C@@H](C)C(=O)OC(C)C)Oc2cccc3ccccc23)c(C=O)c1O (stereo partly drawn) [Compound 16iv, (2S)-Isopropyl 2-(((4-formyl-5-hydroxy-6-methylpyridin-3-yl)methoxy)(naphthalen-1-yloxy)phosphorylamino)propanoate] | 1.8 µM | 47.4%
[2H]C([2H])([2H])C(OC(=O)[C@H](C)NP(=O)(OCc1cnc(C)c(O)c1CN)Oc1ccccc1)C([2H])([2H])[2H] (some centres unmarked) [Compound 14viii] | 0.3 µM | 17.6%
